Results: patent US10004702B2, “Linear guanidine derivatives, methods of preparation and uses thereof” (LEAD DISCOVERY SIENA S.R.L., priority 2014, dated 2018)
In brackets after ≈: the same amount, converted by molar mass.

Columns and labels:
[1] = tested on: human liver microsomial enzymes; test: Metabolic stability assay; format: in vitro ADME; conditions: human liver microsomes, 1 h of incubation at 37° C., 50 μM
Experimental: The reaction was stopped by cooling in ice and adding 1.0 mL of acetonitrile. The reaction mixtures were then centrifuged, and the parent drug and metabolites were subsequently determined by LC-UV-MS as reported for the solubility assay

[2] = tested on: Enterobacter cloacae VA-417/02 (VIM-4); test: Bactericidal activity (MBC); format: cell-based
[3] = tested on: Staphylococcus warneri SI-5/2011; test: MIC against resistant clinical isolates; format: cell-based; conditions: SI5/2011, resistance profile PEN, AG
Experimental: (§1) Bacterial strains were obtained from the ATCC or CCUG culture collections or present in the authors' collection of clinical isolates. Compounds were re-suspended in dimethyl sulfoxyde (DMSO) at a final concentration of 10 mg/ml and subsequently diluted in the culture medium. The minimum inhibitory concentrations (MICs) of the compounds of the invention were determined using the microdilution broth method using Mueller-Hinton broth as recommended by the Clinical Laboratory Standards Institute (CLSI [11]). Bacterial inoculum was 5×10^4 CFU/well. MICs were recorded after 18-24 hours incubation at 35-37° C.
(§2) The Antibacterial activity of compound 28 was also tested on a panel of Gram-negative and Gram-positive clinical isolates, showing various antimicrobial susceptibility profiles (Table 4). The class of drugs for which the isolate was resistant to is indicated in column 2 (PEN, penicillins; ES-CEPH, expanded-spectrum cephalosporins; CARB, carbapenems; AZT; aztreonam; AG, aminoglycosides; FQ, fluoroquinolones; SXT, trimethoprim/sulfamethoxazole; FOS, fosfomycin; GLY, glycopeptides; LNZ, linezolid; COL-R, colistin resistant; COL-S colistin sensitive; PDR, poly-drug resistant).

[4] = tested on: Pseudomonas aeruginosa VR143/97; test: MIC against resistant clinical isolates; format: cell-based; conditions: resistance profile PEN, ES-CEPH, CARB, MON, AG, FQ
Experimental: as §1, §2

[5] = tested on: Klebsiella pneumoniae BO4; test: MIC against resistant clinical isolates; format: cell-based; conditions: COL-R
Experimental: as §1, §2

Klebsiella pneumoniae B2 = test: MIC against resistant clinical isolates; format: cell-based; conditions: COL-R
Experimental: as §1, §2

[6] = tested on: Klebsiella pneumoniae KP0787; test: MIC against resistant clinical isolates; format: cell-based; conditions: resistance profile PDR
Experimental: as §1, §2

[7] = tested on: Pseudomonas aeruginosa 101/1477; test: MIC against resistant clinical isolates; format: cell-based; conditions: resistance profile PEN, ES-CEPH, CARB, AG
Experimental: as §1, §2

[8] = tested on: Klebsiella pneumoniae 7023; test: MIC against resistant clinical isolates; format: cell-based; conditions: resistance profile PEN, ES-CEPH, CARB, AG, FQ, SXT
Experimental: as §1, §2

[9] = tested on: Staphylococcus aureus ATCC 43300 (MRSA); test: MIC against resistant clinical isolates; format: cell-based; conditions: resistance profile PEN
Experimental: as §1, §2

[10] = tested on: Staphylococcus aureus ATCC 700699 (VanA); test: MIC against resistant clinical isolates; format: cell-based; conditions: ATCC700699, resistance profile GLY
Experimental: as §1, §2

[11] = tested on: Klebsiella pneumoniae 207-2; test: MIC against resistant clinical isolates; format: cell-based; conditions: 2072, COL-R
Experimental: as §1, §2

Klebsiella pneumoniae B1 = test: MIC against resistant clinical isolates; format: cell-based; conditions: COL-S
Experimental: as §1, §2

[12] = tested on: Klebsiella pneumoniae 207-1; test: MIC against resistant clinical isolates; format: cell-based; conditions: 2071, COL-S
Experimental: as §1, §2

[13] = tested on: Klebsiella pneumoniae 167R; test: MIC against resistant clinical isolates; format: cell-based; conditions: resistance profile PDR
Experimental: as §1, §2

[14] = tested on: Klebsiella pneumoniae BO1; test: MIC against resistant clinical isolates; format: cell-based; conditions: COL-S
Experimental: as §1, §2

[15] = tested on: Alcaligenes faecalis 424/98; test: Bactericidal activity (MBC); format: cell-based
Escherichia coli CCUG^T = test: Antimicrobial susceptibility testing, MIC by microdilution broth method; format: cell-based; conditions: Mueller-Hinton broth, 18-24 hours at 35-37° C., read-out: MIC
Experimental: as §1

[16] = tested on: Staphylococcus aureus ATCC 25923; test: as above; format: cell-based; conditions: ATCC25923, Mueller-Hinton broth, 18-24 hours at 35-37° C., read-out: MIC
Experimental: as §1

[17] = tested on: Acinetobacter baumannii ATCC 17978; test: as above; format: cell-based; conditions: ATCC17978, Mueller-Hinton broth, 18-24 hours at 35-37° C., read-out: MIC
Experimental: as §1

[18] = tested on: Enterococcus faecalis ATCC 19433; test: as above; format: cell-based; conditions: ATCC19433, Mueller-Hinton broth, 18-24 hours at 35-37° C., read-out: MIC
Experimental: as §1

[19] = tested on: Bacillus subtilis ATCC 6633; test: as above; format: cell-based; conditions: ATCC6633, Mueller-Hinton broth, 18-24 hours at 35-37° C., read-out: MIC
Experimental: as §1

[20] = tested on: Pseudomonas aeruginosa ATCC 27853; test: as above; format: cell-based; conditions: ATCC27853, Mueller-Hinton broth, 18-24 hours at 35-37° C., read-out: MIC
Experimental: as §1

[21] = tested on: Klebsiella pneumoniae ATCC 13833; test: as above; format: cell-based; conditions: ATCC13833, Mueller-Hinton broth, 18-24 hours at 35-37° C., read-out: MIC
Experimental: as §1

Burkholderia cepacia RII = test: as above; format: cell-based; conditions: Mueller-Hinton broth, 18-24 hours at 35-37° C., read-out: MIC
Experimental: as §1

[22] = tested on: Achromobacter xylosoxidans AX 22; test: as above; format: cell-based; conditions: AX22, Mueller-Hinton broth, 18-24 hours at 35-37° C., read-out: MIC
Experimental: as §1

[23] = tested on: Stenotrophomonas maltophilia 634/08; test: as above; format: cell-based; conditions: Mueller-Hinton broth, 18-24 hours at 35-37° C., read-out: MIC
Experimental: as §1

[24] = tested on: Chryseobacterium meningosepticum CCUG 4310; test: as above; format: cell-based; conditions: Elizabethkingia meningoseptica, CCUG4310, Mueller-Hinton broth, 18-24 hours at 35-37° C., read-out: MIC
Experimental: as §1

[25] = tested on: Alcaligenes faecalis 424/98; test: as above; format: cell-based; conditions: Mueller-Hinton broth, 18-24 hours at 35-37° C., read-out: MIC
Experimental: as §1

[26] = tested on: Enterococcus faecalis ATCC 19433; test: Bactericidal activity (MBC); format: cell-based; conditions: ATCC19433
[27] = tested on: Acinetobacter baumannii AC-54/97 (IMP-2); test: Bactericidal activity (MBC); format: cell-based

N=C(N)NCCCCCCCCN(CCCCCCCCNC(=N)NCC1CC1)C(=O)N(CCCCCCCCNC(=N)N)CCCCCCCCNC(=N)NCC1CC1 [Compound 28, 1,3-bis(8-(3-(cyclopropylmethyl)guanidino)octyl)-1,3-bis(8-guanidinooctyl)urea]
metabolic stability [1]: 99.9%
MBC [2]: 1 µg/mL (≈ 1.18 µM)
MIC [3]: 2 µg/mL (≈ 2.37 µM)
MIC [4]: 8 µg/mL (≈ 9.46 µM)
MIC [5]: 8 µg/mL (≈ 9.46 µM)
MIC (Klebsiella pneumoniae B2): 4 µg/mL (≈ 4.73 µM)
MIC [6]: 1 µg/mL (≈ 1.18 µM)
MIC [7]: 8 µg/mL (≈ 9.46 µM)
MIC [8]: 2 µg/mL (≈ 2.37 µM)
MIC [9]: 4 µg/mL (≈ 4.73 µM)
MIC [10]: 4 µg/mL (≈ 4.73 µM)
MIC [11]: 8 µg/mL (≈ 9.46 µM)
MIC (Klebsiella pneumoniae B1): 4 µg/mL (≈ 4.73 µM)
MIC [12]: 4 µg/mL (≈ 4.73 µM)
MIC [13]: 4 µg/mL (≈ 4.73 µM)
MIC [14]: 4 µg/mL (≈ 4.73 µM)
MBC [15]: 8 µg/mL (≈ 9.46 µM)
MIC (Escherichia coli CCUG^T): 1 µg/mL (≈ 1.18 µM)
MIC [16]: 2 µg/mL (≈ 2.37 µM)
MIC [17]: 4 µg/mL (≈ 4.73 µM)
MIC [18]: < 0.125 µg/mL
MIC [19]: 0.5 µg/mL (≈ 0.591 µM)
MIC [20]: 4 µg/mL (≈ 4.73 µM)
MIC [21]: 1 µg/mL (≈ 1.18 µM)
MIC (Burkholderia cepacia RII): 8 µg/mL (≈ 9.46 µM)
MIC [22]: 8 µg/mL (≈ 9.46 µM)
MIC [23]: 16 µg/mL (≈ 18.9 µM)
MIC [24]: 64 µg/mL (≈ 75.7 µM)
MIC [25]: 8 µg/mL (≈ 9.46 µM)
MBC [26]: < 0.125 µg/mL
MBC [27]: 2 µg/mL (≈ 2.37 µM)
